# Data as given in US11780832B2, “Lactivicin compounds, their preparation and use as antibacterial agents” (priority 2021, dated 2023).
# Tests used:
# Format in all cases: cell-based
# [1] = test system: Enterobacter cloacae species complex Elevated AmpC; assay: Synergistic activity: MIC in the presence of Avibactam
# Procedure: (§1) Isolates were sub-cultured onto appropriate media and stocked in skim milk at −80° C. Following two subcultures from frozen stock, in vitro antimicrobial susceptibility testing was performed using the Clinical and Laboratory Standards Institute (CLSI) broth microdilution method. Briefly, fresh cultures were suspended in culture media to give a final stock inoculum size of 5×10^7 colony forming units per milliliter of broth (CFU/mL). Test compounds were prepared at a stock solution concentration equal to 128 μg/mL, then diluted to give a final an initial working concentration of 32 μg/mL. 100 μL of the stock solutions were added to the first wells in a 96-well plate and were then diluted using a 2-fold dilution method to give a range of 32-0.025 μg/mL. 100 μL of the bacterial suspensions were then added to the 96-well plates to give a final working inoculum size of 5×10^5 CFU/mL. The final compound concentration range was 16-0.0125 μg/mL. […] MICs for comparator agents were determined using custom-designed, in-house prepared 96-well broth microdilution panels.
# (§2) The same method used to test the activity of the claimed compounds was used to determine their synergistic activity when combined with a β-lactamase inhibitor except that either a fixed concentration or fixed ratio of a β-lactamase inhibitor was added to the 96-well plates prior to adding the bacteria cultures. Synergistic activity was defined as the reduction of MIC of a given compound when tested using the β-lactamase inhibitor versus testing the compound in the absence of a β-lactamase inhibitor.
# [2] = test system: Proteus mirabilis CMY-DHA; assay: as above; settings: row r36, in the presence of Avibactam @ 4 μg/mL
# Procedure: as §1, §2
# Escherichia coli CMY-DHA [3] = assay: as above
# Procedure: as §1, §2
# [4] = test system: Klebsiella pneumoniae CMY-DHA; assay: as above; settings: row r32, in the presence of Avibactam @ 4 μg/mL
# Procedure: as §1, §2
# [5] = test system: Escherichia coli Elevated AmpC; assay: as above
# Procedure: as §1, §2
# [6] = test system: Citrobacter freundii species complex Elevated AmpC; assay: as above; settings: row r16, in the presence of Avibactam @ 4 μg/mL
# Procedure: as §1, §2
# [7] = test system: Enterobacter cloacae species complex Elevated AmpC; assay: MIC against Elevated AmpC producing strains, compound alone
# Procedure: (§3) Gram-negative and Gram-positive bacterial strains used during the in vitro minimum inhibitory concentration (MIC) determination were obtained either from the American Type Culture Collection (ATCC) or from clinical specimens. All strains were characterized genotypically and the respective antibiotic resistance markers for each strain were identified.
# as §1
# [8] = test system: Escherichia coli Elevated AmpC; assay: as above
# Procedure: as §3, §1
# [9] = test system: Citrobacter freundii species complex Elevated AmpC; assay: as above; settings: row r16
# Procedure: as §3, §1
# [10] = test system: Proteus mirabilis CMY-DHA; assay: MIC against CMY-DHA producing strains, compound alone; settings: row r36
# Procedure: as §3, §1
# Escherichia coli CMY-DHA [11] = assay: as above
# Procedure: as §3, §1
# [12] = test system: Klebsiella pneumoniae CMY-DHA; assay: as above; settings: row r32
# Procedure: as §3, §1
# [13] = test system: Pseudomonas aeruginosa AmpC overexpressed; assay: MIC, CLSI broth microdilution
# Method in brief: (§4)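 The read-out is the minimum inhibitory concentration determined by CLSI broth microdilution. Final compound levels ran from 16 to 0.0125 μg/mL in two-fold steps against about 5×10^5 CFU/mL of genotypically characterized bacteria.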
# [14] = test system: Escherichia coli ATCC 25922; assay: MIC, CLSI broth microdilution; settings: ATCC25922
# Method in brief: (§5)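 Isolates stored at −80 °C in skim milk are passaged twice, suspended in broth, and challenged in microdilution panels per CLSI. Final drug range is 16-0.0125 μg/mL; final cell density is 5×10^5 CFU/mL.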
# [15] = test system: Acinetobacter baumannii ATCC 19606; assay: MIC, CLSI broth microdilution; settings: ATCC19606
# Method in brief: as §5
# [16] = test system: Klebsiella pneumoniae OXA-48, SHV-1; assay: MIC, CLSI broth microdilution
# Method in brief: as §4
# [17] = test system: Escherichia coli CTX-M-15; assay: MIC, CLSI broth microdilution; settings: CTXM15
# Method in brief: as §5
# [18] = test system: Serratia marcescens AmpC overexpressed; assay: MIC, CLSI broth microdilution
# Method in brief: as §4
# [19] = test system: Pseudomonas aeruginosa ATCC 27853; assay: MIC, CLSI broth microdilution; settings: ATCC27853
# Method in brief: as §5
# [20] = test system: Enterobacter cloacae species complex NDM-1; assay: MIC, CLSI broth microdilution
# Method in brief: as §5
# Escherichia coli CMY-2 = assay: MIC, CLSI broth microdilution; settings: CMY2
# Method in brief: as §5
# [21] = test system: Klebsiella oxytoca KPC-2, TEM-1; assay: MIC, CLSI broth microdilution; settings: KPC-2, TEM-1, read-out: MIC
# Method in brief: as §5
smiles,measurement,setting,value
"Nc1nc(/C(=N/OC2(C(=O)O)CCOCC2)C(=O)N[C@H]2CON(C3(C(=O)O)C[C@H](N4C(=O)c5cc(O)c(O)nc5C4=O)C(=O)O3)C2=O)cs1 (stereo partly drawn) [Cmpd 26, 4-({(Z)-[1-(2-amino-1,3-thiazol-4-yl)-2-({(4S)-2-[(4S)-2-carboxy-4-(2,3-dihydroxy-5,7-dioxo-5,7-dihydro-6H-pyrrolo[3,4-b]pyridin-6-yl)-5-oxooxolan-2-yl]-3-oxo-1,2-oxazolidin-4-yl}amino)-2-oxoethylidene]amino}oxy)oxane-4-carboxylic acid]",MIC,[1]; in the presence of Avibactam @ 4 μg/mL,0.25 µg/mL
same,MIC,"[1]; strain of row r7, in the presence of Avibactam @ 4 μg/mL",0.5 µg/mL
same,MIC,"[1]; strain of row r20, in the presence of Avibactam @ 4 μg/mL",<=0.008 μg/mL
same,MIC,[2],0.06 µg/mL
same,MIC,"Escherichia coli CMY-DHA [3]; strain of row r26, in the presence of Avibactam @ 4 μg/mL",0.25 µg/mL
same,MIC,"Escherichia coli CMY-DHA [3]; strain of row r27, in the presence of Avibactam @ 4 μg/mL",0.03 µg/mL
same,MIC,"Escherichia coli CMY-DHA [3]; strain of row r28, in the presence of Avibactam @ 4 μg/mL",0.06 µg/mL
same,MIC,"Escherichia coli CMY-DHA [3]; strain of row r29, in the presence of Avibactam @ 4 μg/mL",0.5 µg/mL
same,MIC,"Escherichia coli CMY-DHA [3]; strain of row r30, in the presence of Avibactam @ 4 μg/mL",<=0.008 μg/mL
same,MIC,"Escherichia coli CMY-DHA [3]; strain of row r31, in the presence of Avibactam @ 4 μg/mL",0.5 µg/mL
same,MIC,"Escherichia coli CMY-DHA [3]; strain of row r34, in the presence of Avibactam @ 4 μg/mL",0.06 µg/mL
same,MIC,"Escherichia coli CMY-DHA [3]; strain of row r35, in the presence of Avibactam @ 4 μg/mL",0.06 µg/mL
same,MIC,[4],0.5 µg/mL
same,MIC,"[5]; strain of row r10, in the presence of Avibactam @ 4 μg/mL",0.015 µg/mL
same,MIC,"[5]; strain of row r11, in the presence of Avibactam @ 4 μg/mL",0.12 µg/mL
same,MIC,"[5]; strain of row r12, in the presence of Avibactam @ 4 μg/mL",0.25 µg/mL
same,MIC,"[5]; strain of row r13, in the presence of Avibactam @ 4 μg/mL",<=0.008 μg/mL
same,MIC,"[5]; strain of row r14, in the presence of Avibactam @ 4 μg/mL",0.015 µg/mL
same,MIC,"[5]; strain of row r15, in the presence of Avibactam @ 4 μg/mL",0.12 µg/mL
same,MIC,[6],0.25 µg/mL
same,MIC,[7],2 µg/mL
same,MIC,[7]; strain of row r7,4 µg/mL
same,MIC,[7]; strain of row r20,1 µg/mL
same,MIC,[8]; strain of row r10,0.06 µg/mL
same,MIC,[8]; strain of row r11,0.5 µg/mL
same,MIC,[8]; strain of row r12,2 µg/mL
same,MIC,[8]; strain of row r13,0.06 µg/mL
same,MIC,[8]; strain of row r14,0.12 µg/mL
same,MIC,[8]; strain of row r15,0.5 µg/mL
same,MIC,[9],1 µg/mL
same,MIC,[10],4 µg/mL
same,MIC,Escherichia coli CMY-DHA [11]; strain of row r26,2 µg/mL
same,MIC,Escherichia coli CMY-DHA [11]; strain of row r27,0.25 µg/mL
same,MIC,Escherichia coli CMY-DHA [11]; strain of row r28,1 µg/mL
same,MIC,Escherichia coli CMY-DHA [11]; strain of row r29,2 µg/mL
same,MIC,Escherichia coli CMY-DHA [11]; strain of row r30,1 µg/mL
same,MIC,Escherichia coli CMY-DHA [11]; strain of row r31,8 µg/mL
same,MIC,Escherichia coli CMY-DHA [11]; strain of row r34,1 µg/mL
same,MIC,Escherichia coli CMY-DHA [11]; strain of row r35,1 µg/mL
same,MIC,[12],4 µg/mL
same,MIC,[13],4 µg/mL
same,MIC,[14],0.5 µg/mL
same,MIC,[15],1 µg/mL
same,MIC,[16],0.0149 µg/mL
same,MIC,[17],4 µg/mL
same,MIC,[18],0.5 µg/mL
same,MIC,[19],2 µg/mL
same,MIC,[20],2 µg/mL
same,MIC,Escherichia coli CMY-2,4 µg/mL
same,MIC,[21],0.0149 µg/mL
